In patent US20060100190A1, “Motexafin lutetium phototherapy with low fluences for treating vascular inflammation” (Pharmacyclics, Inc., priority 2004, published 2006):

Tests used:
[1] = tested on: Watanabe Heritable Hyperlipidemic (WHHL) rabbits; assay: MLu phototherapy (732 nm, low fluences) of aortic atheroma in cholesterol-fed WHHL rabbits; type: in vivo, rabbit
Excerpt: FIG. 1 depicts treated segments of the rabbit aortic tree. In each rabbit, both T1 and T2 segments were about 30 mm in length with another 30 mm of buffer in between. Both T1 and T2 received the same fluence (J/cmf) at different fluence rates (mW/cmf) because T1 illumination period was shorter at 400 seconds compared to 900 seconds for T2.
Thirty 8 months old male Watanabe Heritable Hyperlipidemic (WHHL) rabbits were randomized after 3 weeks of 1% cholesterol feeding to either control or MLu groups (10 mg/kg, iv via ear vein). Intravascular illumination was performed 24 hours post-MLu using a fiber with a 30 mm active diffuser tip to deliver escalating fluences (30-175 J/cmf, 732 nm) for 400 s (upper) and 900 s (lower thoracic/abdominal aorta); control received no light. Rabbits were then switched to a normal diet immediately after phototherapy and sacrificed 3 weeks later. Aortas were harvested and examined for plaque (I/M ratios), Mac (RAM11), smooth muscle cell (myosin) and collagen (Picrosirius Red) changes.

[2] = tested on: Fat-fed New Zealand rabbits; assay: MLu phototherapy at low light fluence in fat-fed New Zealand rabbits; type: in vivo, rabbit; conditions: PT at 732 nm, low light fluence 30-100 J/cmf
Excerpt: The methods, compositions, strategies and techniques described herein include processes to treat diffuse inflammation in blood vessels by administering a photo-activatable compound and low light fluence in the range of in the range of about 10 to about 400 Joules/cm of illuminated length in the general vicinity of the inflammation.

[3] = tested on: atheroma; conditions: reported; cited from earlier work

CC(=O)[O-].CC(=O)[O-].CCc1c(CC)c2cc3nc(cnc4cc(OCCOCCOCCOC)c(OCCOCCOCCOC)cc4ncc4nc(cc1[n-]2)C(CCCO)=C4C)C(C)=C3CCCO.O.[Lu+3] [MLu, motexafin lutetium]
macrophages in plaques ([1]; 30-175 J/cmf delivered over 400 s and 900 s): macrophage depletion
macrophage burden ([1]; all tested fluence groups (30-175 J/cmf) vs. control, p<0.05, both T1 and T2 treated segments): statistical significant reduction in macrophage burden
collagen (picrosirius red, bright-field and polarization microscopy) ([1]; treated 30 J/cmf, 400 s vs. control): denser packing of matured collagen
smooth muscle cell (SMC) content, histology of myosin-stained areas ([1]; treated 30 J/cmf, 400 s vs. control (non-phototherapy)): did not appear to decrease
SMC content (myosin positive areas), planimetry, % of the intima ([1]; treated sections, 30 J/cmf, 400 s, control 43.1±3.8%): 50.9±9.7%
diffuse inflammation in blood vessels (based on decrease in macrophage burden) [2]: significant reduction in diffuse inflammation
effect on macrophages (Mac) following phototherapy (PT) [3]: destroys Mac by inducing apoptosis
